Laboratory results reported in paper PMC7235778, “Methylxanthines Inhibit Primary Amine Oxidase and Monoamine Oxidase Activities of Human Adipose Tissue” (Medicines, 2020).

How the values were obtained:
[1] = target: T1, primary amine oxidase (PrAO; SSAO/VAP-1) (Homo sapiens, UniProt Q16853); test: Amplex Red H2O2 assay of methylamine and benzylamine oxidation in adipose tissue homogenate; assay type: cell-based; conditions: read-out: % inhibition at 1 mM
T1 construct: gene AOC3; native enzyme in human subcutaneous adipose tissue homogenate
T1 sequence (Q16853 1-763): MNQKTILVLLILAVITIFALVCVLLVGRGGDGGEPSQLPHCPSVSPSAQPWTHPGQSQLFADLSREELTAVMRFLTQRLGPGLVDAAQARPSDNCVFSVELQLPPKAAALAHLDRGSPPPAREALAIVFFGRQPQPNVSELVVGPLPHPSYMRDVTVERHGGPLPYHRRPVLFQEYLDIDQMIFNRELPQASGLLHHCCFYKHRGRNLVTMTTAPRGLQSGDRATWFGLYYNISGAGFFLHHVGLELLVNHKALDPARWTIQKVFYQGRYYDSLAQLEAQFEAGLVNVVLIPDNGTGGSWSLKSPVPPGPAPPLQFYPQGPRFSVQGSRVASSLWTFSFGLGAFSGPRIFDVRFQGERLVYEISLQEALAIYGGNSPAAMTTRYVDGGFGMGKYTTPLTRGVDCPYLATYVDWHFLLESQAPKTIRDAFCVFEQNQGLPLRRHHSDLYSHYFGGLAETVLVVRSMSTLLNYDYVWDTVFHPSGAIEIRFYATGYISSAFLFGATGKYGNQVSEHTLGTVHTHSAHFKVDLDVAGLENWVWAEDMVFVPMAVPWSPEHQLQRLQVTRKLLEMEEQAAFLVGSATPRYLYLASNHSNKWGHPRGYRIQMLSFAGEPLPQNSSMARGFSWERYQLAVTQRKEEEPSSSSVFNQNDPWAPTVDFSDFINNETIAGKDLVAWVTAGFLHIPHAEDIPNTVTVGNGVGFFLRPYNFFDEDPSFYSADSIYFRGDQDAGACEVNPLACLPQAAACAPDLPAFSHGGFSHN

[2] = target: T1, primary amine oxidase (PrAO; SSAO/VAP-1); test: Amplex Red H2O2 assay of benzylamine and methylamine oxidation in adipose tissue homogenate; assay type: biochemical
[3] = target: T1, primary amine oxidase (PrAO; SSAO/VAP-1); test: as above; assay type: cell-based; conditions: read-out: % inhibition at 2.5 mM
[4] = target: T1, primary amine oxidase (PrAO; SSAO/VAP-1); test: Amplex Red H2O2 assay of benzylamine oxidation in adipose tissue homogenate; Lineweaver-Burk analysis; assay type: cell-based; conditions: read-out: % inhibition at 2.5 mM

With `CC(C)Cn1c(=O)n(C)c(=O)c2[nH]cnc21` [IBMX, 3-isobutyl-1-methylxanthine] the inhibition at 1000 µM [1] was roughly 80%.

In the case of `NNC(N)=O` [Semi, semicarbazide], the “Amplex Red H2O2 assay of benzylamine and methylamine oxidation in adipose tissue” value [2] is reported as “total inhibition at 1”.

For `Cn1c(=O)c2c(ncn2C)n(C)c1=O` [caffeine], the inhibition at 2500 µM [3] was roughly 50%.

Molecule `Cn1cnc2c1c(=O)[nH]c(=O)n2C` [theobromine] has an inhibition at 2500 µM [4] of 54%.
